Tests used:
BT20 breast cancer cells = assay: Confocal laser scanning microscopy of microtubules / mitotic spindle, BT20; type: cell-based, human
Protocol: Immunofluorenscence was used to examine the spindle features of human cancer cell lines treated with Compound 003 or 0.5% DMSO. […] The coverslips were incubated with antibodies raised against α-tubulin, γ-tubulin (Sigma Chemical Co., St Louis, Mo.) (40 min 37° C.), washed in PBS-Tx-100, and incubated with an appropriate secondary antibody conjugated to FITC (Jackson ImmunoResearch, Westgrove, Pa.). Cellular DNA was labeled with 5 μM TOTO3 (Molecular Probes, Eugene, Oreg.) for 20 minutes. Coverslips were immediately inverted onto slides in Vectashield (Vector Labs, Burlingame, Calif.) to prevent photobleaching, sealed with nail varnish and stored at −20° C. The slides were examined using a Bio-Rad MRC-1024 Laser Scanning Confocal Microscope equipped with a Kr/Ar laser (BioRad, Hercules, Calif.) mounted on a Nikon Eclipse E800 upright microscope with high numerical aperture objectives (Nikon, Melville, N.Y.). Digital data were processed using Lasersharp (BioRad) and Adobe Photoshop software (Adobe Systems, Mountain View, Calif.). ( See, for example, Navara, et al., 2001, Anticancer Drugs. 12:369; Malaviya, et al., 2002, Leuk Lymphoma. 43, 1329; and Ghosh, 1998, Clin Cancer Res. 4, 2657).

[1] = tested on: PC-3 prostate cancer cells; assay: Confocal laser scanning microscopy of mitotic spindle, PC-3; type: cell-based, human; conditions: 100 μM
Protocol: Immunofluorenscence was used to examine the spindle features of human cancer cell lines treated with Compound 003 or 0.5% DMSO. Initially, cells at log phase were seeded onto sterile 22 mm coverslips in six -well culture plates. 24 hours later, the cells were treated with compound 003 for 2 hours at 37° C., 5% C02, fixed in methanol (−20° C. 15 min) followed by a 15 minute incubation with PBS +0.1.% Tx-100. The coverslips were incubated with antibodies raised against α-tubulin, γ-tubulin (Sigma Chemical Co., St Louis, Mo.) (40 min 37° C.), washed in PBS-Tx-100, and incubated with an appropriate secondary antibody conjugated to FITC (Jackson ImmunoResearch, Westgrove, Pa.). Cellular DNA was labeled with 5 μM TOTO3 (Molecular Probes, Eugene, Oreg.) for 20 minutes. Coverslips were immediately inverted onto slides in Vectashield (Vector Labs, Burlingame, Calif.) to prevent photobleaching, sealed with nail varnish and stored at −20° C. The slides were examined using a Bio-Rad MRC-1024 Laser Scanning Confocal Microscope equipped with a Kr/Ar laser (BioRad, Hercules, Calif.) mounted on a Nikon Eclipse E800 upright microscope with high numerical aperture objectives (Nikon, Melville, N.Y.). Digital data were processed using Lasersharp (BioRad) and Adobe Photoshop software (Adobe Systems, Mountain View, Calif.). […]

MOLT-3, human T lymphoma = assay: DNA flow cytometry of cell cycle arrest, MOLT-3; type: cell-based; conditions: 100 μM, 48 hour
Protocol: (§1) Exponentially growing tumor cells were cultured at 1×10^6 cells/ml in clonogenic medium (RPMI 1640 medium +1% penicillin/streptomycin +10% heat-inactivated fetal bovine serum, 2 mML-glutamine, and 10 mM Hepes buffer) in the presence or absence of 100 μM compound 003 for 48 hour at 37° C., 5% CO2. At 48 h, cells were washed two times in fresh clonogenic medium, trypsinized, fixed in ice cold ethanol and labeled with propidium iodide to quantify their DNA content, as described previously (See, for example, Navara, et al., 2001, Anticancer Drugs. 12:369). Quantitative DNA analysis was performed on a Becton Dickenson Calibur flow cytometer equipped with a Consort 40 computer using the COTFIT program, which includes CELLCY, a cell cycle distribution function that fits DNA content histograms and calculates-the percentages of cells in G, S, and GM phases of the cell cycle, as described, for example, in Uckun et al., 1996, J Biol Chem. 271, 6389.

[2] = tested on: human infant leukemia (RS4; 11); assay: DNA flow cytometry of cell cycle arrest, RS4;11; type: cell-based; conditions: 100 μM, 48 hour
Protocol: as §1

[3] = tested on: human pre-B acute lymphoblastic leukemia (NALM-6); assay: DNA flow cytometry of cell cycle arrest, NALM-6; type: cell-based; conditions: 100 μM, 48 hour
Protocol: as §1

[4] = tested on: human T leukemia/lymphoma (JURKAT); assay: DNA flow cytometry of cell cycle arrest, JURKAT; type: cell-based; conditions: 100 μM, 48 hour
Protocol: as §1

[5] = tested on: Microsomal or cytosolic fractions of BT20 cells; assay: Enzyme kinetics of Compound 003 metabolism in subcellular fractions, BT20; type: in vitro ADME, human
Protocol: (§2) 1−3×10^8 Nalm6 and BT20 cells were washed with PBS, resuspended in homogenizing buffer containing 10 mM Tris-HCl (pH 7.4) and 250 mM sucrose. Cells were sonicated and spun at 10,000×g, and the resulting supernatant was centrifuged again at 100,000×g to isolate microsomal and cytosolic fractions. The microsomal pellet was resuspended in a buffer containing 10 mM Tris-HCl (pH 7.4), 250 mM sucrose, 1 mM EDTA, and 20% glycerol. Microsomes or cytosols of Nalm6 (80 μg. and 86 μg, respectively) and BT20 cells (59 μg and 160 μg, respectively) were preincubated with or without 1 mM paraoxon in Tris-HCl buffer (pH 7.4) in a total volume of 250 μl for 10 minutes; 1. mM COMPOUND 003 was then added to the incubation mixture, and the reactions were allowed to proceed for another 30 minutes and terminated by addition of 125 μl of acetone. Protein precipitation was then removed by centrifugation; 100 μl of the supernatant was injected directly into the HPLC.
(§3) 2.2.9 Enzyme Kinetics of Compound 003 Metabolism Microsomal or cytosolic fractions of Nalm6 and BT20 cells were incubated with COMPOUND 003 at various concentrations from 10 μM to 1.2 mM in similar reaction conditions as described above, except without the inhibitor. The reactions were allowed to proceed for 40 minutes. Km and Vmax in the Michaelis-Menten model were estimated by WinNonlin program (Scientific Consulting, Inc.)

[6] = tested on: Microsomal or cytosolic fractions of Nalm6 cells; assay: Enzyme kinetics of Compound 003 metabolism in subcellular fractions, Nalm6; type: in vitro ADME, human
Protocol: as §2, §3

Stability in plasma = type: in vitro ADME
Protocol: Plasma samples, simulated gastric fluid and intestinal fluids (United State Pharmacopeia XXII methods) were separately spiked with COMPOUND 003 to yield final concentrations of 500 μM. Spiked samples were incubated at 37° C. At a predetermined time (5, 10, 15, 30 60 and 120 minutes), an aliquot (200 μl) of the spiked plasma sample was extracted as described above.

Q: With COC(=O)C(C)NP(=O)(OCC1OC(n2cc(C)c(=O)[nH]c2=O)CC1N=[N+]=[N-])Oc1ccc(OC)cc1 (stereo not drawn) [Compound 003, 3′-azidothymidine 5′-[p-methoxyphenylmethoxyalaninyl phosphate]] as the compound, how does the mitotic spindle formation (BT20 breast cancer cells; 100 μM) read?
A: induced aberrant multipolar spindle formation

Q: And the effect on microtubules (BT20 breast cancer cells; 185 μM for 24 hours (AZT: similar concentrations))?
A: no microtubules were observed

Q: What about the mitotic spindle formation [1] of the same compound?
A: induced aberrant multipolar spindle formation

Q: What about the cell cycle arrest (MOLT-3, human T lymphoma) of the same compound?
A: caused G2 arrest

Q: What about the cell cycle arrest [2] of the same compound?
A: G2M cell cycle arrest

Q: What about the cell cycle arrest [3] of the same compound?
A: G2M cell cycle arrest

Q: What about the cell cycle arrest [4] of the same compound?
A: G2M cell cycle arrest

Q: And the Km ([5]; cytosolic fraction)?
A: 1750 µM

Q: And the Vmax ([5]; cytosolic fraction)?
A: 5.9 nmol/mg/min

Q: And the Km ([5]; microsomal fraction)?
A: 460 µM

Q: What about the Vmax ([5]; microsomal fraction) of the same compound?
A: 0.7 nmol/mg/min

Q: And the Km ([6]; cytosolic fraction)?
A: 765 µM

Q: What about the Vmax ([6]; cytosolic fraction) of the same compound?
A: 541 pmol/mg/min

Q: What about the Km ([6]; microsomal fraction) of the same compound?
A: 163 µM

Q: What about the Vmax ([6]; microsomal fraction) of the same compound?
A: 82.3 pmol/mg/min

Q: And the decomposition product (Stability in plasma)?
A: decomposed to mainly form ala-AZT-MP

Q: And the stability (Stability in plasma; 500 μM, 37° C.)?
A: unstable in plasma

Q: And the “share of Compound 003 decomposed” value (Stability in plasma; 500 μM, 37° C., within 5 minutes)?
A: > 99%

From US20060046972A1, “Cytotoxic nucleoside analog compound 003 for treating cancer” (Parker Hughes Institute, priority 2004, published 2006)
